Experimental data from patent publication EP0008556A1, “Bis 7H pyridocarbazole derivatives and pharmaceutical compositions containing them” (ANVAR Agence Nationale de Valorisation de la Recherche, priority 1978, dated 1980).

How the values were obtained:
Assay type in all cases: in vivo, souris
leucémie L1210 = experiment: Therapeutic effect on L1210 leukemia in mice, single intraperitoneal injection 24 h after intraperitoneal tumour inoculation; details: for Augmentation survie traitées/contrôle x 100 / Survie moyenne en jours des souris traitées ± erreur standard. / % de cellules tumorales tuées par le traitement: single i.p. injection, inoculum 10^5 L1210 cells; for % de cellules tumorales tuées par le traitement: calculated by Skipper method; for Nombre d'animaux guéris: cured = survival more than 45 days after inoculation; for index chimiothérapeutique: leucémie L1210, read from Table VI; for fraction des cellules survivantes N/No après traitement en fonction de la dose (fraction de la dose infra-létale DLo): figure 2, comparison with dérivé 34 (DIE)
Source text: Afin de tester l'activité antitumorale des composés décrits plus haut, on a utilisé en premier lieu des leucémies murines P388 et L1210. La leucémie P388 est considérée comme très sensible et permet une première sélection. La leucémie L1210 est plus résistante et plus sélective. Une substance ayant une grande activité sur la leucémie L1210 a une grande chance d'être active en clinique humaine (J.M. VENDITTI, Relevance of transplantable animal tumor systems to the Selection of new agents for clinical trial in pharmacologi- cal basis of cancer chemotherapy. The University of Texas ed. Williams and Wilkins, publ. 1975, Baltimore USA) .
D'autre part, la tumeur expérimentale qu'est la leucémie L1210 de la souris est en effet couramment utilisée pour l'évaluation de tous les composés antitumoraux actuellement mis en oeuvre en thérapeutique humaine, ainsi qu'il est décrit, par exemple par C.C. ZUBROD dans Proc. Nat. Acad. Sci. USA 69, 1972, p 1042-1047. Le système tumoral ainsi constitué expérimentalement permet une évaluation quantitative très précise de l'activité du composé testé, et, par conséquent aussi, une comparaison objective entre les activités respectives de différents composés, par exemple selon les méthodes décrites par R.E. SKIPPER, F.M. SCHABEL Jr. et W.S. WILCOX dans Cancer Chemother. Rep., 35, 1964, p 1-111 et 45, 1965, p 5-28.
(§1) En pratique, on a utilisé des souris ayant reçu par voie intrapéritonéale un inoculum de cellules de leucémie L1210 et ayant été, pour la moitié d'entre elles, soumises 24 heures après ladite inoculation tumorale à une injection intrapéritonéale d'une dose unique de l'un des composés à tester : l'autre moitié des souris a reçu une injection d'un volume identique d'un solvant inactif et servait de série témoin. On a réparti les souris au hasard dans chaque série expérimentale. Une première expérimentation de routine a permis de déterminer la mortalité par toxicité et de fixer ainsi les doses infra-létales.
Conformément à la convention en usage dans ce domaine, on considérait comme guéris les animaux qui survivaient plus de 45 jours après l'inoculation de cellules tumorales.
On a ainsi pu déterminer la mortalité par toxicité sous l'effet d'une injection unique de l'un des composés à différentes doses (doses infra-létales, DL 50 et DL 100) et évaluer le taux de survie du groupe d'animaux auxquels on n'avait injecté qu'une dose infra-létale d'un composé selon l'invention.
On a calculé le taux de survie à partir d'une analyse statistique des résultats expérimentaux, par comparaison avec les résultats obtenus avec la série témoin, selon les méthodes bien connues de Mann-Whitey et de Wilcoxon; le pourcentage de cellules leucémiques tuées par le traitement réalisé était calculé par la méthode décrite par H.E. SKIPPER et coll. dans les articles cités plus haut, en prenant pour base, suivant le cas, soit l'augmentation de la survie moyenne en l'absence de survivants, soit le pourcentage de survivants.
Pour l'évaluation de l'activité thérapeutique des composés selon l'invention, on a exprimé les doses dudit composé en les rapportant à la dose infra-létale […], que l'on a posée égale à 1. Cette dose infra-létale s'est en effet avérée plus facile à déterminer pour les composés de l'invention que la DL 10, dont elle est d'ailleurs très voisine et qui est habituellement prise comme référence pour l'évaluation de l'activité thérapeutique de composés à effet antitumoral (voir H.E. SKIPPER et coll., ouvrages cités).

mélanome B 16 = experiment: Survival of mice bearing B 16 melanoma, identical protocol; details: same doses
Source text: as §1
(§2) En outre, ces composés présentent une forte activité sur le mélanome B 16 et la tumeur de Lewis, pour les mêmes doses, le protocole étant identique. A titre d'exemple, sur le mélanome B 16, le dérivé 41 augmente de 15 jours la survie des souris traitées; sur la tumeur de Lewis, l'augmentation de survie induite pour ce même dérivé est de 8 jours avec un survivant.

tumeur de Lewis = experiment: Survival of mice bearing Lewis tumour, identical protocol; details: same doses
Source text: as §1, §2

[1] = dose 0.02 of the infra-lethal dose
[2] = dose 0.1 of the infra-lethal dose
[3] = dose 0.2 of the infra-lethal dose
[4] = dose 0.25 of the infra-lethal dose
[5] = dose 0.3 of the infra-lethal dose
[6] = dose 0.4 of the infra-lethal dose
[7] = dose 1/5 of the infra-lethal dose
[8] = dose 0.04 of the infra-lethal dose
[9] = dose 0.8 of the infra-lethal dose

| Structure (SMILES) | Augmentation survie traitées/contrôle x 100 (leucémie L1210; [1]) | Survie moyenne en jours des souris traitées ± erreur standard. (leucémie L1210; [1]) | % de cellules tumorales tuées par le traitement (leucémie L1210; [1]) | Augmentation survie traitées/contrôle x 100 (leucémie L1210; [3]) | Survie moyenne en jours des souris traitées ± erreur standard. (leucémie L1210; [3]) | % de cellules tumorales tuées par le traitement (leucémie L1210; [3]) | Augmentation survie traitées/contrôle x 100 (leucémie L1210; [6]) | Survie moyenne en jours des souris traitées ± erreur standard. (leucémie L1210; [6]) | % de cellules tumorales tuées par le traitement (leucémie L1210; [6]) | % des cellules leucémiques tuées (leucémie L1210; [7]) | index chimiothérapeutique (leucémie L1210) | fraction des cellules survivantes N/No après traitement en fonction de la dose (fraction de la dose infra-létale DLo) (leucémie L1210) | other results |
| --- | --- | --- | --- | --- | --- | --- | --- | --- | --- | --- | --- | --- | --- |
| COc1ccc2[nH]c3ccc4cc[n+](CCN5CCC(C6CCN(CC[n+]7ccc8ccc9[nH]c%10ccc(OC)cc%10c9c8c7)CC6)CC5)cc4c3c2c1 [Dérivé 34, Dichlorurede 1'1'-bis 2-(2-méthoxy-10,7-H-pyrido[4,3-c]carbazolium)éthy14,4' bispipéridine] | 128 | 12.2 ± 0.9 jours | 98% | 144 | 14.3 ± 2.6 jours | 99.97% | 182 | 18.1 ± 4.5 jours | 99.999% | 99,97% | extrêmement élevé |  | Nombre d'animaux guéris (leucémie L1210; [2]): 1/15; Augmentation survie traitées/contrôle x 100 (leucémie L1210; [2]): 137; Survie moyenne en jours des souris traitées ± erreur standard. (leucémie L1210; [2]): 13.6 ± 2.9 jours; % de cellules tumorales tuées par le traitement (leucémie L1210; [2]): 94.8%; Augmentation survie traitées/contrôle x 100 (leucémie L1210; [4]): 216; Survie moyenne en jours des souris traitées ± erreur standard. (leucémie L1210; [4]): 18.6 ± 4.5 jours; % de cellules tumorales tuées par le traitement (leucémie L1210; [4]): 99.999%; Augmentation survie traitées/contrôle x 100 (leucémie L1210; [5]): 191; Survie moyenne en jours des souris traitées ± erreur standard. (leucémie L1210; [5]): 17.6 ± 4.5 jours; % de cellules tumorales tuées par le traitement (leucémie L1210; [5]): 99.999% |
| COc1ccc2c(c1)c1c3c[n+](CCN4CCC(C5CCN(CC[n+]6ccc7ccc8c(c7c6)c6cc(OC)ccc6n8C)CC5)CC4)ccc3ccc1n2C [Dérivé 41, Dichlorurede 1,1' bis 2-(2-méthyl-7-méthoxy-10,7-H-pyrido [4,3-c]carbazolium) éthyl 4,4' bispipéridine] |  |  |  |  |  |  | 140 | 11.8 ± 0.9 jours | 99.8% |  | extrêmement élevé |  | Augmentation survie traitées/contrôle x 100 (leucémie L1210; [8]): 143; Survie moyenne en jours des souris traitées ± erreur standard. (leucémie L1210; [8]): 11.9 ± 1.2 jours; % de cellules tumorales tuées par le traitement (leucémie L1210; [8]): 99.8%; Nombre d'animaux guéris (leucémie L1210; [6]): 1/15; Augmentation survie traitées/contrôle x 100 (leucémie L1210; [9]): 155; Survie moyenne en jours des souris traitées ± erreur standard. (leucémie L1210; [9]): 12.9 ± 1.9 jours; % de cellules tumorales tuées par le traitement (leucémie L1210; [9]): 99.97%; % des cellules leucémiques tuées (leucémie L1210; dose 1/15 of the infra-lethal dose): 91,8%; augmentation de la survie des souris traitées (mélanome B 16): 15 jours; augmentation de survie (tumeur de Lewis): 8 jours; survivant (tumeur de Lewis): un survivant |
| Oc1ccc2[nH]c3ccc4cc[n+](CCN5CCC(C6CCN(CC[n+]7ccc8ccc9[nH]c%10ccc(O)cc%10c9c8c7)CC6)CC5)cc4c3c2c1 [Dérivé 40] | 111 | 9.4 ± 1.2 jours | 94% | 153 | 12.9 ± 1.5 jours | 99.47% | 167 | 13.2 ± 1.9 jours | 99.994% | 99,97% | extrêmement élevé |  |  |
| O=P1(N(CCCl)CCCl)NCCCO1 (stereo not shown) [cyclophosphamide, reference compound] |  |  |  |  |  |  |  |  |  |  |  | ne sont actives qu'à des doses bien supérieures à celles du dérivé 34 |  |
| O=NN(CCCl)C(=O)NCCCl [bischloréthylnitrosourée (BCNU), bischloréthylnitrosourée, reference compound] |  |  |  |  |  |  |  |  |  |  |  | ne sont actives qu'à des doses bien supérieures à celles du dérivé 34 |  |
